Reference: PubChem BioAssay (NCI)
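Cells were grown in 96-well plates and exposed to each compound for 48 hours at five concentrations; endpoints were interpolated linearly between bracketing concentrations, or set to the highest concentration if not reached. GI50 is the concentration that inhibits growth by half. TGI marks complete inhibition of growth.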

Tests used:
Assay in all cases: NCI tumour cell line growth inhibition, 48 h
[1] = system: MALME-3M melanoma
[2] = system: HCT-116 colon
[3] = system: NCI-H226 lung
[4] = system: SK-OV-3 ovarian
[5] = system: RPMI-8226 leukemia
[6] = system: SNB-19 CNS
[7] = system: DU-145 prostate
[8] = system: RXF 393 renal
[9] = system: UACC-62 melanoma
[10] = system: OVCAR-8 ovarian

Structure (SMILES) | GI50 [1] | TGI [1] | GI50 [2] | TGI [2] | GI50 [3] | TGI [3] | GI50 [4] | TGI [4] | GI50 [5] | TGI [5] | GI50 [6] | TGI [6] | GI50 [7] | TGI [7] | GI50 [8] | TGI [8] | GI50 [9] | TGI [9] | GI50 [10] | TGI [10]
CCOC(=O)Cc1c[nH]c(=S)[nH]c1=O | > 100000 nM | > 100000 nM | > 100000 nM | > 100000 nM | > 100000 nM | > 100000 nM | > 100000 nM | > 100000 nM | > 100000 nM | > 100000 nM | > 100000 nM | > 100000 nM | > 100000 nM | > 100000 nM | > 100000 nM | > 100000 nM | > 100000 nM | > 100000 nM | > 100000 nM | > 100000 nM
CCc1c(C)[nH]c(/C=C2\N=C(c3ccc[nH]3)C=C2OC)c1C | 474 nM | 2050 nM | < 46.2 nM | – | 812 nM | 8830 nM | 2950 nM | 13500 nM | 23.9 nM | 1050 nM | 1960 nM | 15700 nM | 219 nM | 11000 nM | 473 nM | 4110 nM | 341 nM | 1590 nM | 232 nM | > 24100 nM
O=C(O)[C@@H]1C2CC([C@@H]1C(=O)O)[C@H](N1C(=O)CCC1=O)[C@@H]2Br (some centres undefined) | – | > 100000 nM | – | > 100000 nM | – | > 100000 nM | – | > 100000 nM | – | > 100000 nM | – | > 100000 nM | – | > 100000 nM | – | > 100000 nM | – | > 100000 nM | – | > 100000 nM
CCN(CC)CCOc1ccc(C(=C(C)c2ccc(Cl)cc2)c2ccc(OCCN(CC)CC)cc2)cc1 | 563 nM | 1090 nM | 591 nM | 1160 nM | 2540 nM | 7320 nM | 1220 nM | 4110 nM | 668 nM | 1490 nM | 699 nM | 1560 nM | 1090 nM | 3470 nM | 519 nM | 1010 nM | 610 nM | 1180 nM | 731 nM | 1770 nM
